{"source": "paper PMC8349882", "about": "(Molecular cell, 2021)", "target": "GLR3.4-S1S2 (Arabidopsis thaliana, UniProt Q8GXJ4, DEL602-708)", "sequence (Q8GXJ4 492-601, stated change not applied)": "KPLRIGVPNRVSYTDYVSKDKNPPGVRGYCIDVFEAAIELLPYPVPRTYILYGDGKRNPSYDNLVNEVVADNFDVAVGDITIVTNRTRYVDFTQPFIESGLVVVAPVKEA", "sequence (Q8GXJ4 709-842, stated change not applied)": "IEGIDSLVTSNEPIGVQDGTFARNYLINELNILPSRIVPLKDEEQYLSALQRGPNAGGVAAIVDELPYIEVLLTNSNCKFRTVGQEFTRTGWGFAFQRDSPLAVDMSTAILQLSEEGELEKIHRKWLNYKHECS", "assay": "crystal structure", "format": "binding", "settings": "endogenous ligand from expression, none added"}
{"smiles": "N[C@@H](CO)C(=O)O", "note": "[serine]", "values": [{"measurement": "crystal structure", "result": "The serine-bound LBD structure was solved without adding the ligand to the protein"}]}
